Measurements taken from PubChem BioAssay (NCI).
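These data come from cells grown in 96-well plates and exposed to compound for 48 hours at five concentrations. GI50: concentration for 50% inhibition of growth. The concentration for full growth arrest is given as TGI.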

Columns and labels:
Test in all cases: NCI anticancer screen, dose series, 48 h
786-0 renal = system: 786-0 renal
MDA-MB-231 breast = system: MDA-MB-231 breast
PC-3 prostate = system: PC-3 prostate
SK-OV-3 ovarian = system: SK-OV-3 ovarian
CAKI-1 renal = system: CAKI-1 renal
HS 578T breast = system: HS 578T breast
SNB-75 CNS = system: SNB-75 CNS
CCRF-CEM leukemia = system: CCRF-CEM leukemia
HOP-92 NSCLC = system: HOP-92 NSCLC
HCC-2998 colon = system: HCC-2998 colon

SMILES | GI50 (786-0 renal) | TGI (786-0 renal) | GI50 (MDA-MB-231 breast) | TGI (MDA-MB-231 breast) | GI50 (PC-3 prostate) | TGI (PC-3 prostate) | GI50 (SK-OV-3 ovarian) | TGI (SK-OV-3 ovarian) | GI50 (CAKI-1 renal) | TGI (CAKI-1 renal) | GI50 (HS 578T breast) | TGI (HS 578T breast) | GI50 (SNB-75 CNS) | TGI (SNB-75 CNS) | GI50 (CCRF-CEM leukemia) | TGI (CCRF-CEM leukemia) | GI50 (HOP-92 NSCLC) | TGI (HOP-92 NSCLC) | TGI (HCC-2998 colon) | GI50 (HCC-2998 colon)
CCCCOC1OC(COC(=O)C(C)C)C(OC(=O)C(C)C)C(O)C1OC1OC(C)C(OC(=O)CCC)C(OC(=O)C(C)C)C1O (stereo not drawn) | 14 µM | 26.9 µM | 10.1 µM | 21.7 µM | 8.35 µM | 20.7 µM | 19.8 µM | 34 µM | 17.4 µM | 31.1 µM | 20.7 µM | 39.7 µM | 17.6 µM | 31.4 µM | 10.8 µM | 24.1 µM | 13.2 µM | 25.9 µM |  | 
NC(=O)NC1C(C(=O)O)N(Cc2ccccc2)C(=O)N1Cc1ccccc1 (stereo not drawn) |  | > 100 µM |  |  |  |  |  | > 100 µM |  | > 100 µM |  |  |  | > 100 µM |  | > 100 µM |  | > 100 µM | > 100 µM | 
CC([O-])=C1C(=O)c2ccccc2C1=O.CC([O-])=C1C(=O)c2ccccc2C1=O.CC[O-].CC[O-].[Ti+4] | > 100 µM | > 100 µM |  |  |  |  | > 100 µM | > 100 µM | 59.5 µM | > 100 µM |  |  | > 100 µM | > 100 µM | > 100 µM | > 100 µM | > 100 µM | > 100 µM | > 100 µM | > 100 µM
O=C1CCCCC12CCC/C2=N\O (stereo not drawn) |  | > 100 µM |  |  |  |  |  | > 100 µM |  | > 100 µM |  |  |  | > 100 µM |  | > 100 µM |  |  | > 100 µM | 
CC(=O)NC(C=O)C(O[C@H](C)C(=O)NC(C)C(=O)NC(CCC(N)=O)C(=O)OCc1ccccc1)C(O)C(O)COC(=O)CCNc1c2ccccc2nc2cccc([N+](=O)[O-])c12 (stereo partly drawn) |  | 18.7 µM |  |  |  |  |  |  |  | 93.1 µM |  |  |  | 17.8 µM |  | 34.6 µM |  | 5.41 µM | 2.94 µM | 
COc1cccc(N2C(=O)C3C4C=C5c6ccccc6N(c6ccccc6)C5(C3C2=O)[C@H]2C(=O)N(c3cccc(OC)c3)C(=O)[C@@H]42)c1 (stereo partly drawn) |  | > 100 µM |  |  |  |  |  | > 100 µM |  | > 100 µM |  |  |  | > 100 µM |  | > 100 µM |  | > 100 µM |  | 
O=C(O)c1c(Br)c(Br)c(Br)c(Br)c1C1c2ccc(O)cc2Oc2cc(O)ccc21 |  | > 100 µM |  | > 100 µM |  | > 100 µM |  | > 100 µM |  | > 100 µM |  | > 100 µM |  | > 100 µM |  |  |  | > 100 µM | > 100 µM | 
CCC1(CN(C)C)CC/C(=C\c2ccc(OC)c(OC)c2)C1=O (stereo not drawn) |  | > 100 µM |  |  |  |  |  | > 100 µM |  | > 100 µM |  |  |  | > 100 µM |  | > 100 µM |  | > 100 µM | > 100 µM | 
COc1ccc(C(=O)c2sc3nc(-c4cccs4)ccc3c2N)cc1OC | 62.4 µM | > 100 µM | 2.96 µM | 29.6 µM | 3.65 µM | > 100 µM | 51.9 µM | > 100 µM | 5.29 µM | > 100 µM | 6.27 µM | > 100 µM | 4.06 µM | > 100 µM | 4.53 µM | > 100 µM |  |  | > 100 µM | 26.2 µM
COc1c(N2CCN(CN3C(=O)C(=O)c4cc(Cl)ccc43)C(C)C2)c(F)cc2c(=O)c(C(=O)O)cn(C3CC3)c12 (stereo not drawn) | > 100 µM | > 100 µM | 27.3 µM | > 100 µM | 10.8 µM | > 100 µM |  |  | 24.7 µM | > 100 µM | 30.4 µM | > 100 µM | > 100 µM | > 100 µM |  |  |  |  |  | 
COCCOCCOCCOc1cccc2c1C(=O)c1cccc(OCCOCCOCCOC)c1C2=O |  | > 100 µM |  |  |  |  |  | > 100 µM |  | > 100 µM |  |  |  | > 100 µM |  | > 100 µM |  | > 100 µM | > 100 µM | 
COc1cc(C)c2sc3ccccc3c(=O)c2c1NCCN(C)C | 8.34 µM | 22.2 µM | 3.48 µM | 15.9 µM | 4.28 µM | 17.4 µM | 10.9 µM | 23.6 µM | 5.87 µM | 19.4 µM |  |  | 2.21 µM | 13.2 µM |  |  | 1.51 µM | 8.64 µM | 9.03 µM | 2.99 µM
CC(=O)c1ccc(NC(=O)C(=O)C(C#N)CC(C)(C)C=O)cc1 (stereo not drawn) |  | > 100 µM |  |  |  |  |  | > 100 µM |  | > 100 µM |  |  |  |  |  | > 100 µM |  | > 100 µM | > 100 µM | 
O=C(CC1C=Cc2ccccc2N1C(=O)c1ccccc1)c1ccccc1 (stereo not drawn) |  | > 100 µM |  | 94 µM |  | 96.6 µM |  | > 100 µM |  | > 100 µM |  | 67.4 µM |  | > 100 µM |  | > 100 µM |  | 86 µM |  | 
C=C(C(=C)P(=S)(C(C)C)C(C)C)P(=S)(C(C)C)C(C)C |  | > 100 µM |  |  |  |  |  | > 100 µM |  | > 100 µM |  |  |  | > 100 µM |  | > 100 µM |  | > 100 µM | > 100 µM | 
Cc1ccc(-n2nnnc2-c2cnc(N3CCOCC3)nc2-c2cccc(C(F)(F)F)c2)cc1 | 1.89 µM | > 50 µM | 3.24 µM | > 12.2 µM | 1.44 µM | 3.93 µM | 1.48 µM | > 13.3 µM | 1.45 µM | 13.2 µM | 1.27 µM | > 13.8 µM | 1.6 µM | 3.98 µM | 1.1 µM | 2.55 µM |  |  | 2.17 µM | 0.992 µM
N#CC(C#N)=C/C=C(\Sc1ccc(F)cc1Cl)c1ccc(Cl)cc1 | 0.523 µM | 2.39 µM | 0.478 µM | 2.27 µM | 1.42 µM | 10.4 µM | 2.8 µM | 23.4 µM | 0.427 µM | 3.61 µM | 1.53 µM | 28.2 µM | 10.3 µM | 31 µM | 0.107 µM |  |  |  | 4.54 µM | 2.3 µM
Cc1cc(Cl)ccc1C(=O)c1ccc2ccccc2c1C(=O)O |  | > 100 µM |  | > 100 µM |  | > 100 µM |  |  |  | > 100 µM |  |  |  | > 100 µM |  | > 100 µM |  | > 100 µM | > 100 µM | 
CCCCCCCCCCCc1c(O)c(=O)c2c(oc3c(=O)c(CCCCCCCCCCC)c(O)c(=O)c3n2-c2ccc(N(C)C)cc2)c1=O |  | 33.9 µM |  |  |  |  |  | 37.9 µM |  | 39.7 µM |  |  |  | 62.4 µM |  | 60.5 µM |  |  |  | 
COc1ccc(C(=O)C#Cc2c[nH]c(=O)[nH]c2=O)cc1 |  | 25 µM |  |  |  |  |  | > 100 µM |  | 24.8 µM |  |  |  | 45.5 µM |  | 10.8 µM |  | 41.8 µM | 36.4 µM | 
